Data on one molecule can be found in patent US9849135B2, “USP14 inhibitors for treating or preventing viral infections” (priority 2013, dated 2017).

Experiment [1] concerns DENV2 (New Guinea C strain). Type of experiment: cell-based, Dengue virus. The following applies: 100 μM IU1; preincubated cells.
The next experiment has as its system DENV2. Type of experiment: cell-based, Dengue virus.
The test system of the next experiment is WNV (WNO2-1956). Type of experiment: cell-based, West Nile virus.
For experiment [2], the system named is yellow fever virus (YFV, 17D vaccine strain). Type of experiment: cell-based.
The subject of a further experiment is LACV (LAC74-32813). Type of experiment: cell-based, La Crosse virus.
The test system of a further experiment is CHIKV (LR2006-OPY1). Type of experiment: cell-based, Chikungunya virus.

The structures appear in SMILES notation. Read-outs that look alike come from different tables or passages of the source.

For the molecule `Cc1cc(C(=O)CN2CCCC2)c(C)n1-c1ccc(F)cc1` [IU1, 1-(1-(4-fluorophenyl)-2,5-dimethyl-1H-pyrrol-3-yl)-2-(pyrrolidin-1-yl)ethanone], in experiment [1], the “plaques in plaque assay” value is “No plaques were observed”. The “titer, % of maximum” value in the experiment with DENV2 (75 μM IU1, post-infection addition) is 37%. Moreover, in the experiment with DENV2 (100 μM IU1, post-infection addition), the “titer, % of maximum” value stood at 0.5%. In the experiment with WNV (WNO2-1956), the WNV titer reduction is on record as 3-5 fold, the “WNV titer versus without the drug” value is on record as “significantly higher” and the “plaques in plaque assay (WNV)” value is “no plaques were observed”. Besides, the YFV titer reduction in experiment [2] is 3-5 fold. In the experiment on LACV (LAC74-32813), this molecule registered an LACV replication reduction of 3 fold. The “effect on CHIKV replication” value with CHIKV (LR2006-OPY1) was “negligible or non-existent”.
